Results as given in article PMC7377239, “Cardiovascular Effects of Polychlorinated Biphenyls and Their Major Metabolites” (Environmental Health Perspectives, 2020).
Like-named read-outs stand apart in the source and are kept apart here.

What was measured:
[1] = system: iCell endothelial cells (human iPSC-derived ECs); test: Tube formation (tubulogenesis) assay in iCell endothelial cells, 18 h; format: cell-based; conditions: Homo sapiens, Endothelial cell, iPSC-EC tube formation, 18 hr; for activity at 0.1 µM: 0.10 µM; for minimal effective concentration: top concentration 100.00 µM
Method in brief: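 iCell ECs (passages 1–5) seeded 7,500 cells/well on reduced-growth-factor Geltrex in starvation medium, exposed overnight at 37°C to compounds in triplicate concentration–response (0.5% DMSO vehicle). Calcein AM staining, 4× imaging, angiogenesis image analysis; readouts normalized to vehicle, four-parameter logistic fit, POD at 1 SD of vehicle; 100 μM assigned NOAEL if no response.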

[2] = system: HUVECs; test: Tube formation (tubulogenesis) assay in HUVECs, 18 h; format: cell-based, human; conditions: Homo sapiens, HUVEC, 18 h, HUVECs; for activity at 0.1 µM: 0.10 µM; for minimal effective concentration: top concentration 100.00 µM
Method in brief: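 HUVECs (passage 1–5) seeded on reduced-growth-factor basement membrane and exposed to compounds overnight at 37°C, 5% CO2, in 2× maintenance medium with 12.5 ng/mL VEGF; 0.5% DMSO vehicle. Calcein AM-stained tube networks imaged and analysed; vehicle-normalized readouts fit to four-parameter logistic, POD set at one SD of vehicle means.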

[3] = 0.00 µM control = 100.00, read-out: endo.mtl.18hr
[4] = 0.00 µM control = 100.00, read-out: endo.tlps.18hr
[5] = 0.00 µM control = 100.00, read-out: endo.tta.18hr
[6] = 0.00 µM control = 100.00, read-out: endo.ttl.18hr
[7] = 0.00 µM = 100.00, read-out: huvec.mtl.18hr
[8] = 0.00 µM = 100.00, read-out: huvec.tlps.18hr
[9] = 0.00 µM = 100.00, read-out: huvec.tta.18hr
[10] = 0.00 µM = 100.00, read-out: huvec.ttl.18hr

Clc1cccc(-c2cccc(Cl)c2)c1 [PCB11]
activity at 0.01 µM [1, 3]: 98.5% | activity at 0.01 µM [1, 4]: 118% | activity at 0.01 µM [1, 5]: 148% | activity at 0.01 µM [1, 6]: 143% | activity at 0.1 µM [1, 3]: 102% | activity at 0.1 µM [1, 4]: 117% | activity at 0.1 µM [1, 5]: 118% | activity at 0.1 µM [1, 6]: 116% | activity at 1 µM [1, 3]: 105% | activity at 1 µM [1, 4]: 125% | activity at 1 µM [1, 5]: 132% | activity at 1 µM [1, 6]: 126% | activity at 10 µM [1, 3]: 91.6% | activity at 10 µM [1, 4]: 140% | activity at 10 µM [1, 5]: 80.8% | activity at 10 µM [1, 6]: 80.3% | activity at 100 µM [1, 3]: 105% | activity at 100 µM [1, 4]: 114% | activity at 100 µM [1, 5]: 150% | activity at 100 µM [1, 6]: 150% | minimal effective concentration ([1]; read-out: endo.mtl.18hr POD): 100 µM | minimal effective concentration ([1]; read-out: endo.tlps.18hr POD): 100 µM | minimal effective concentration ([1]; read-out: endo.tta.18hr POD): 100 µM | minimal effective concentration ([1]; read-out: endo.ttl.18hr POD): 100 µM | activity at 0.01 µM [2, 7]: 107% | activity at 0.01 µM [2, 8]: 122% | activity at 0.01 µM [2, 9]: 138% | activity at 0.01 µM [2, 10]: 122% | activity at 0.1 µM [2, 7]: 113% | activity at 0.1 µM [2, 8]: 126% | activity at 0.1 µM [2, 9]: 133% | activity at 0.1 µM [2, 10]: 124% | activity at 1 µM [2, 7]: 109% | activity at 1 µM [2, 8]: 130% | activity at 1 µM [2, 9]: 157% | activity at 1 µM [2, 10]: 140% | activity at 10 µM [2, 7]: 97.8% | activity at 10 µM [2, 8]: 94.6% | activity at 10 µM [2, 9]: 86.1% | activity at 10 µM [2, 10]: 87.2% | activity at 100 µM [2, 7]: 81.4% | activity at 100 µM [2, 8]: 77.5% | activity at 100 µM [2, 9]: 85% | activity at 100 µM [2, 10]: 78.8% | minimal effective concentration ([2]; read-out: huvec.mtl.18hr POD): 100 µM | minimal effective concentration ([2]; read-out: huvec.tlps.18hr POD): 41.8 µM | minimal effective concentration ([2]; read-out: huvec.tta.18hr POD): 100 µM | minimal effective concentration ([2]; read-out: huvec.ttl.18hr POD): 100 µM

Clc1ccc(Cl)c(-c2cc(Cl)ccc2Cl)c1 [PCB52]
activity at 0.01 µM [1, 3]: 109% | activity at 0.01 µM [1, 4]: 89.1% | activity at 0.01 µM [1, 5]: 152% | activity at 0.01 µM [1, 6]: 156% | activity at 0.1 µM [1, 3]: 111% | activity at 0.1 µM [1, 4]: 140% | activity at 0.1 µM [1, 5]: 108% | activity at 0.1 µM [1, 6]: 116% | activity at 1 µM [1, 3]: 107% | activity at 1 µM [1, 4]: 132% | activity at 1 µM [1, 5]: 125% | activity at 1 µM [1, 6]: 133% | activity at 10 µM [1, 3]: 110% | activity at 10 µM [1, 4]: 108% | activity at 10 µM [1, 5]: 119% | activity at 10 µM [1, 6]: 120% | activity at 100 µM [1, 3]: 79% | activity at 100 µM [1, 4]: 83.4% | activity at 100 µM [1, 5]: 89.5% | activity at 100 µM [1, 6]: 95.5% | minimal effective concentration ([1]; read-out: endo.mtl.18hr POD): 79.8 µM | minimal effective concentration ([1]; read-out: endo.tlps.18hr POD): 100 µM | minimal effective concentration ([1]; read-out: endo.tta.18hr POD): 100 µM | minimal effective concentration ([1]; read-out: endo.ttl.18hr POD): 100 µM | activity at 0.01 µM [2, 7]: 105% | activity at 0.01 µM [2, 8]: 114% | activity at 0.01 µM [2, 9]: 103% | activity at 0.01 µM [2, 10]: 94.1% | activity at 0.1 µM [2, 7]: 111% | activity at 0.1 µM [2, 8]: 126% | activity at 0.1 µM [2, 9]: 105% | activity at 0.1 µM [2, 10]: 94.2% | activity at 1 µM [2, 7]: 108% | activity at 1 µM [2, 8]: 121% | activity at 1 µM [2, 9]: 86.8% | activity at 1 µM [2, 10]: 81.6% | activity at 10 µM [2, 7]: 100% | activity at 10 µM [2, 8]: 95% | activity at 10 µM [2, 9]: 99.7% | activity at 10 µM [2, 10]: 94.2% | activity at 100 µM [2, 7]: 97.2% | activity at 100 µM [2, 8]: 114% | activity at 100 µM [2, 9]: 94.8% | activity at 100 µM [2, 10]: 83.5% | minimal effective concentration ([2]; read-out: huvec.mtl.18hr POD): 100 µM | minimal effective concentration ([2]; read-out: huvec.tlps.18hr POD): 100 µM | minimal effective concentration ([2]; read-out: huvec.tta.18hr POD): 100 µM | minimal effective concentration ([2]; read-out: huvec.ttl.18hr POD): 100 µM
